PubChem BioAssay (NCI)
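All cell lines were grown in 96-well plates and treated with compound for 48 hours. The concentration for 50% growth inhibition is given as GI50. TGI denotes the concentration required for complete inhibition of growth.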

Columns and labels:
Assay in all cases: inhibition of tumour cell growth, NCI panel, 48 h
[1] = system: PC-3 prostate
[2] = system: LOX IMVI melanoma
[3] = system: OVCAR-5 ovarian
[4] = system: UACC-62 melanoma
[5] = system: 786-0 renal
[6] = system: A498 renal
[7] = system: SW-620 colon
[8] = system: MDA-MB-231 breast
[9] = system: OVCAR-3 ovarian
[10] = system: UACC-257 melanoma
[11] = system: K-562 leukemia
[12] = system: SF-539 CNS
[13] = system: SN12C renal
[14] = system: UO-31 renal
[15] = system: SF-295 CNS
[16] = system: MOLT-4 leukemia
[17] = system: OVCAR-8 ovarian
[18] = system: SNB-19 CNS
[19] = system: DU-145 prostate
[20] = system: HL-60(TB) leukemia
[21] = system: RXF 393 renal
[22] = system: HCT-15 colon
[23] = system: NCI-H522 lung
[24] = system: BT-549 breast
[25] = system: EKVX NSCLC
[26] = system: HOP-62 NSCLC
[27] = system: T-47D breast
[28] = system: SNB-75 CNS
[29] = system: COLO 205 colon
[30] = system: NCI-H23 lung
[31] = system: CCRF-CEM leukemia
[32] = system: MDA-MB-435
[33] = system: NCI-H226 lung
[34] = system: SK-MEL-2 melanoma
[35] = system: TK-10 renal
[36] = system: HCC-2998 colon
[37] = system: M14 melanoma
[38] = system: SK-MEL-28 melanoma
[39] = system: HT29 colon
[40] = system: OVCAR-4 ovarian
[41] = system: RPMI-8226 leukemia
[42] = system: MALME-3M melanoma
[43] = system: IGROV1 ovarian
[44] = system: U251 CNS
[45] = system: KM12 colon
[46] = system: CAKI-1 renal
[47] = system: HOP-92 NSCLC
[48] = system: SF-268 CNS
[49] = system: NCI/ADR-RES ovarian
[50] = system: SR leukemia
[51] = system: MCF7 breast
[52] = system: HCT-116 colon
[53] = system: SK-OV-3 ovarian
[54] = system: NCI-H460 lung
[55] = system: A549 NSCLC
[56] = system: HS 578T breast
[57] = system: SK-MEL-5 melanoma
[58] = system: ACHN renal

Structure (SMILES): COC(=O)c1c2c(c(C)[n+]([O-])c1C)C(=O)C(NCc1cccc(Cl)c1)=CC2=O
- GI50 [1]: 1.62 µM
- TGI [1]: 17.9 µM
- GI50 [2]: 1.76 µM
- TGI [2]: 5.58 µM
- GI50 [3]: 1.81 µM
- TGI [3]: 3.63 µM
- GI50 [4]: 1.24 µM
- TGI [4]: 2.84 µM
- GI50 [5]: 2.65 µM
- TGI [5]: 13.9 µM
- GI50 [6]: 1.56 µM
- TGI [6]: 3.18 µM
- GI50 [7]: 1.01 µM
- TGI [7]: 4.31 µM
- GI50 [8]: 1.18 µM
- TGI [8]: 4.88 µM
- GI50 [9]: 0.322 µM
- TGI [9]: 1.17 µM
- GI50 [10]: 0.701 µM
- TGI [10]: 2.28 µM
- GI50 [11]: 2.17 µM
- TGI [11]: > 100 µM
- GI50 [12]: 1.8 µM
- TGI [12]: 3.26 µM
- GI50 [13]: 1.02 µM
- TGI [13]: 2.44 µM
- GI50 [14]: 1.53 µM
- TGI [14]: 3.23 µM
- GI50 [15]: 1.31 µM
- TGI [15]: 2.72 µM
- GI50 [16]: 2.01 µM
- TGI [16]: 5.68 µM
- GI50 [17]: 1.52 µM
- TGI [17]: 9.78 µM
- GI50 [18]: 2.45 µM
- TGI [18]: 7.8 µM
- GI50 [19]: 1.91 µM
- TGI [19]: 4.2 µM
- GI50 [20]: 0.628 µM
- TGI [20]: 3.55 µM
- GI50 [21]: 1.48 µM
- TGI [21]: 3.37 µM
- GI50 [22]: 1.1 µM
- TGI [22]: 2.75 µM
- GI50 [23]: 1.91 µM
- TGI [23]: 4.62 µM
- GI50 [24]: 1.54 µM
- TGI [24]: 3.07 µM
- GI50 [25]: 1.51 µM
- TGI [25]: 3.61 µM
- GI50 [26]: 2.3 µM
- TGI [26]: 9.62 µM
- GI50 [27]: 1.69 µM
- TGI [27]: 4.41 µM
- GI50 [28]: 2.1 µM
- TGI [28]: 5.07 µM
- GI50 [29]: 0.388 µM
- TGI [29]: 1.55 µM
- GI50 [30]: 1.23 µM
- TGI [30]: 3.25 µM
- GI50 [31]: 2.29 µM
- TGI [31]: 8.53 µM
- GI50 [32]: 0.344 µM
- TGI [32]: 1.13 µM
- GI50 [33]: 2.1 µM
- TGI [33]: 4.67 µM
- GI50 [34]: 1.95 µM
- TGI [34]: 4.6 µM
- GI50 [35]: 3.69 µM
- TGI [35]: 15.3 µM
- GI50 [36]: 1.82 µM
- TGI [36]: 4.46 µM
- GI50 [37]: 1.06 µM
- TGI [37]: 2.4 µM
- GI50 [38]: 3.17 µM
- TGI [38]: 15 µM
- GI50 [39]: 0.634 µM
- TGI [39]: > 100 µM
- GI50 [40]: 0.507 µM
- TGI [40]: 1.85 µM
- GI50 [41]: 2.14 µM
- TGI [41]: 7.81 µM
- GI50 [42]: 0.171 µM
- TGI [42]: 0.432 µM
- GI50 [43]: 1.17 µM
- TGI [43]: 2.98 µM
- GI50 [44]: 2.1 µM
- TGI [44]: 7.52 µM
- GI50 [45]: 1.56 µM
- TGI [45]: 9.73 µM
- GI50 [46]: 1.97 µM
- TGI [46]: 5.63 µM
- GI50 [47]: 2.22 µM
- TGI [47]: 4.54 µM
- GI50 [48]: 2.53 µM
- TGI [48]: 12.9 µM
- GI50 [49]: 1.64 µM
- TGI [49]: 5.81 µM
- GI50 [50]: 1.85 µM
- TGI [50]: > 100 µM
- GI50 [51]: 1.1 µM
- TGI [51]: 2.77 µM
- GI50 [52]: 0.679 µM
- TGI [52]: 4.9 µM
- GI50 [53]: 3.05 µM
- TGI [53]: 12.8 µM
- GI50 [54]: 0.659 µM
- TGI [54]: 7.92 µM
- GI50 [55]: 1.94 µM
- TGI [55]: 6.17 µM
- GI50 [56]: 2.32 µM
- TGI [56]: 6.91 µM
- GI50 [57]: 0.2 µM
- TGI [57]: 0.448 µM
- GI50 [58]: 1.52 µM
- TGI [58]: 3.58 µM
